According to ChEMBL document CHEMBL4433197, “Nuclear Factor Erythroid 2-Related Factor 2 (Nrf2) Inhibition: An Emerging Strategy in Cancer Therapy” (J Med Chem, 2019):

Target: T1, Nuclear factor erythroid 2-related factor 2 (Mus musculus, UniProt Q60795)
T1 sequence (Q60795 whole entry): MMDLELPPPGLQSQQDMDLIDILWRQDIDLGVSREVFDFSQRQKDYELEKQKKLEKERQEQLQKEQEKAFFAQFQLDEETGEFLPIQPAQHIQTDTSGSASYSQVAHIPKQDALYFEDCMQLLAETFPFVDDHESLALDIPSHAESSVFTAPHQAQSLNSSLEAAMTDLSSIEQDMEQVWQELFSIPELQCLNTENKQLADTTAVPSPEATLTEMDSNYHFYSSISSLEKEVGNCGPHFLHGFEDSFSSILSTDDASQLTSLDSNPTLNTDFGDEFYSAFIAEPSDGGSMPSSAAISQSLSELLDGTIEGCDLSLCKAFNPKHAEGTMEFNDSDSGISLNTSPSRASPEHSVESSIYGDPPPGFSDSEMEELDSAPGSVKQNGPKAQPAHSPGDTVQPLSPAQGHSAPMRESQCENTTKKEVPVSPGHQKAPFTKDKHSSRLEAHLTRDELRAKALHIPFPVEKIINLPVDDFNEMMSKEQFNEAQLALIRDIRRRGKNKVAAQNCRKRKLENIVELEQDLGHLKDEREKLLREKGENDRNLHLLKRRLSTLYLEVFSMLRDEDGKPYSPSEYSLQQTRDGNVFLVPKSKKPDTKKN
Experiment: Inhibition of Nrf2 in mouse MYC-3T3-ARELUC cells harboring a stably integrated ARE by firefly luciferase reporter gene assay
Format: cell-based

EC50: 650 nM
SMILES: Fc1ccc(-c2csc3ncnc(NCc4ccc5c(c4)OCO5)c23)cc1
